Results on one compound are retold here after EP0233206B1, “SUGAR-[…] THEIR PHARMACEUTICAL USE” (priority 1985, dated 1987).

Each structure is given as a SMILES string.

One test concerns immunkompetenten Zellen. Briefly: Activity of immunocompetent cells of the treated animals. As to conditions: cells of the animals treated with 500 µg substance in 1 % Squalan-in-Wasser-Lösung. Type of test: in vivo, NMRI-Mäusen.
Test [1] has as its system mäusepathogenen Influenza-Viren. Type of test: in vivo, NMRI-Mäusen. The conditions noted are these: 20 NMRI mice, 500 µg each injected in 1 % Squalan-in-Wasser-Lösung, all saline controls died.

Turning to `COC(=O)CC[C@@H](NC(=O)CNC(=O)CO[C@@H]1[C@H]2OC(C)(C)O[C@H]2O[C@@H]1[C@H]1COC(C)(C)O1)C(=O)OC` [Beispiel 1, N-[ (1,2:5,6-Di-0-isopropyliden-α-D-glucofuranos-30-yl)-acetyl]-glycyl-D-glutaminsäure-dimethylester], the “Aktivität der immunkompetenten Zellen” value in the test with immunkompetenten Zellen is reported as “erhöhte Aktivität”. Moreover, the “überlebten (Tiere)” value in test [1] is 80%.
